Source: patent US10829499B2, “Tetracyclic heterocycle compounds useful as HIV integrase inhibitors” (MERCK SHARP & DOHME CORP., priority 2016, dated 2020)
Where two headings read alike, the source gives them in different places.

System: HIV-1 (NL4-3 strain)
Assay: Assay for Inhibition of HIV Replication (kinetic assay, MT4-gag-GFP reporter cell line; VIKING)
Assay type: cell-based
Procedure: This assay is a kinetic assay that employs a reporter cell line (MT4-gag-GFP) to quantify the number of new cells infected in each round of replication.
MT4-GFP cells (250,000 cells/ml) were bulk-infected with HIV-1 (NL4-3 strain) at low multiplicity of infection (MOI) in RPMI cell culture medium+10% FBS for 24 hours. Cells were then washed once in RPMI cell culture medium+10% FBS and resuspended in RPMI cell culture medium+0% or 10% or 100% normal human serum (NHS). Test compounds were serial-diluted in DMSO on an ECHO® liquid handler. The infected MT4-GFP cells were added to a 384-well poly-D-lysine coated black plate with clear bottom in which the diluted test compounds were placed. The cells were seeded at 8,000 cells per well and the final DMSO concentration was 0.4%. The infected cells (Green GFP cells) were quantified at both 24 and 48 hours post incubation using Acumen eX3. Viral reproductive ratio (R0) was determined using the number of infected cells at 48 hours divided by the number of infected cells at 24 hours. Percent viral growth inhibition was calculated by [1-(R-Rtripledrug),/(RDMSO-Rtripledrug)]*100. Compound potency IP or IC50 was determined by a 4-parameter dose response curve analysis. In vitro potency in the cell-based assay in the absence of normal human serum (NHS) and the presence of 100% NHS.

[1] = Human immunodeficiency virus 1, NL43, MT4-GFP cells infected with HIV-1 NL4-3, 0% normal human serum (NHS), read-out: VIKING IP50 (nM) with 0% NHS
[2] = MT4-GFP cells infected with HIV-1 NL4-3, 100% normal human serum (NHS), read-out: VIKING IP50 (nM) with 100% NHS
[3] = MT4-GFP cells infected with HIV-1 NL4-3, 0% normal human serum (NHS), read-out: VIKING IP50 (nM) with 0% NHS
[4] = Human immunodeficiency virus 1, NL43, MT4-GFP cells infected with HIV-1 NL4-3, 100% normal human serum (NHS), read-out: VIKING IP50 (nM) with 100% NHS

Row | Structure (SMILES) | IC50 [1] [nM] | IC50 [2] [nM] | IC50 [3] [nM] | IC50 [4] [nM]
1 | O=C(NCc1ccc(F)cc1F)c1c2n3c(c(O)c1=O)C(=O)N1CCCCOC1C3CC2 (single isomer, unassigned) [Compound 69] | 1.36 | 349 |  | 
2 | O=C(NCc1cccc(Cl)c1F)c1c2n3c(c(O)c1=O)C(=O)N1C4CCC(C4)OC1C3CC2 (centres unmarked) [Compound 154] |  | 79.2 | 4.14 | 
3 | CC(C)N1C2C3CCc4c(C(=O)NCc5cccc(Cl)c5F)c(=O)c(O)c(n43)C(=O)N2C[C@@H]1C (some centres unmarked) [Compound 106] | 3.68 |  |  | 88.9
4 | O=C(NCc1ccc(F)cc1)c1c2n3c(c(O)c1=O)C(=O)N1C4CCC(C4)OC1C3CC2 (centres unmarked) [Compound 161] |  | 5510 | 2.67 | 
5 | C[C@@H]1COC2C3CCc4c(C(=O)NCc5cccc(Cl)c5F)c(=O)c(O)c(n43)C(=O)N21 (single isomer, unassigned) [Compound 37] |  | 1690 | 0.546 | 
6 | C[C@H]1CCOC2C3CCc4c(C(=O)NCc5ccc(F)cc5F)c(=O)c(O)c(n43)C(=O)N21 (single isomer, unassigned) [Compound 62] |  | 528 | 0.83 | 
7 | C[C@@H]1COC2C3CCc4c(C(=O)NCc5cccc(Cl)c5F)c(=O)c(O)c(n43)C(=O)N21 (some centres unmarked) [Compound 35] | 0.733 |  |  | 88.7
8 | CC12OCCCN1C(=O)c1c(O)c(=O)c(C(=O)NCc3ccc(F)cc3F)c3n1C2CC3 (centres unmarked) [Compound 133] | 0.93 | 617 |  | 
9 | O=C(NCc1c(F)cc(F)cc1F)c1c2n3c(c(O)c1=O)C(=O)N1CCOC1C3CC2 (single isomer, unassigned) [Compound 21] |  | 158 | 0.605 | 
10 | O=C(NCc1ccc(F)c(Cl)c1)c1c2n3c(c(O)c1=O)C(=O)N1CCOC1C3CC2 (single isomer, unassigned) [Compound 22] | 0.895 | 503 |  | 
11 | CN1CCCN2C(=O)c3c(O)c(=O)c(C(=O)NCc4ccc(F)cc4F)c4n3C(CC4)C12 (centres unmarked) [Compound 80] | 0.662 |  |  | 13.8
12 | C[C@H]1COC2C3CCc4c(C(=O)NCc5cccc(Cl)c5F)c(=O)c(O)c(n43)C(=O)N21 (single isomer, unassigned) [Compound 30] |  | 838 | 0.536 | 
13 | C[C@H]1CN2C(=O)c3c(O)c(=O)c(C(=O)NCc4cccc(Cl)c4F)c4n3C(CC4)C2O1 (single isomer, unassigned) [Compound 43] |  | 18.2 | 1.06 | 
14 | CCNC1CC2C3OCCCN3C(=O)c3c(O)c(=O)c(C(=O)NCc4cccc(F)c4F)c1n32 (centres unmarked) [Compound 186] |  | 36.5 | 9.86 | 
15 | C[C@H]1CN2C(=O)c3c(O)c(=O)c(C(=O)NCc4cccc(Cl)c4F)c4n3C(CC4)C2O1 (some centres unmarked) [Compound 42] | 1.38 |  |  | 1570
16 | O=C(NCc1ccc(F)cc1F)c1c2n3c(c(O)c1=O)C(=O)N1CCOC1C3CC2 (single isomer, unassigned) [Compound 9] | 0.7 | 1130 |  | 
17 | O=C(NCc1ccc(F)cc1F)c1c2n3c(c(O)c1=O)C(=O)N1CCCOC1C3CC2 (single isomer, unassigned) [Compound 58] |  | 1520 | 0.845 | 
18 | O=C(NCc1c(F)cccc1F)c1c2n3c(c(O)c1=O)C(=O)N1CCOC1C3CC2 (single isomer, unassigned) [Compound 14] |  | 194 | 0.827 | 
19 | CN1CCCN2C(=O)c3c(O)c(=O)c(C(=O)NCc4cccc(Cl)c4F)c4n3C(CC4)C12 (single isomer, unassigned) [Compound 85] |  | 17.8 | 0.703 | 
20 | O=C(NCc1cccc(Cl)c1F)c1c2n3c(c(O)c1=O)C(=O)N1CCOC1C3CC2 (single isomer, unassigned) [Compound 3] | 0.478 | 372 |  | 
21 | C[C@H]1CN2C(=O)c3c(O)c(=O)c(C(=O)NCc4cccc(Cl)c4F)c4n3C(CC4)C2N1S(C)(=O)=O (some centres unmarked) [Compound 119] |  | 445 | 8.77 | 
22 | CCCN1C2C3CCc4c(C(=O)NCc5cccc(Cl)c5F)c(=O)c(O)c(n43)C(=O)N2C[C@@H]1C (some centres unmarked) [Compound 107] |  | 272 | 2.82 | 
23 | C[C@H]1CNC2C3CCc4c(C(=O)NCc5ccc(F)cc5F)c(=O)c(O)c(n43)C(=O)N21 (some centres unmarked) [Compound 100] |  | 56.5 | 1.94 | 
24 | CN1CCCN2C(=O)c3c(O)c(=O)c(C(=O)NCc4ccc(F)cc4F)c4n3C(CC4)C12 (single isomer, unassigned) [Compound 81] | 1.15 | 24.2 |  | 
25 | C[C@H]1CN2C(=O)c3c(O)c(=O)c(C(=O)NCc4cccc(Cl)c4F)c4n3C(CC4)C2N1C (some centres unmarked) [Compound 102] | 1.05 |  |  | 579

Row | Structure (SMILES) | IC50 [1] [nM] | IC50 [2] [nM] | IC50 [3] [nM] | IC50 [4] [nM]
26 | C[C@H]1CN2C(=O)c3c(O)c(=O)c(C(=O)NCc4cccc(Cl)c4F)c4n3C(CC4)C2N1 (some centres unmarked) [Compound 94] |  | 14.5 | 0.503 | 
27 | O=C(NCc1cccc(Cl)c1F)c1c2n3c(c(O)c1=O)C(=O)N1CCCCOC1C3CC2 (single isomer, unassigned) [Compound 66] |  | 834 | 1.48 | 
28 | O=C(NCc1ccc(F)cc1)c1c2n3c(c(O)c1=O)C(=O)N1CCCOC1C3CC2 (single isomer, unassigned) [Compound 54] |  | 904 | 0.654 | 
29 | CC12OCCCN1C(=O)c1c(O)c(=O)c(C(=O)NCc3ccc(F)cc3F)c3n1C2CC3 (centres unmarked) [Compound 135] |  | 1280 | 0.791 | 
30 | O=C(NCc1cccc(Cl)c1F)c1c2n3c(c(O)c1=O)C(=O)N1C4CCC(C4)OC1C3CC2 (centres unmarked) [Compound 155] |  | 7460 | 2.77 | 
31 | C[C@H]1COC2C3CCc4c(C(=O)NCc5cccc(Cl)c5F)c(=O)c(O)c(n43)C(=O)N21 (single isomer, unassigned) [Compound 31] |  | 197 | 0.418 | 
32 | CCNC1CC2C3OCCCN3C(=O)c3c(O)c(=O)c(C(=O)NCc4c(F)cc(F)cc4F)c1n32 (centres unmarked) [Compound 180] |  | 20.1 | 3.57 | 
33 | C[C@H]1CN2C(=O)c3c(O)c(=O)c(C(=O)NCc4cccc(Cl)c4F)c4n3C(CC4)C2N1C (some centres unmarked) [Compound 105] |  | 32.6 | 0.495 | 
34 | O=C(NCc1c(F)cccc1F)c1c2n3c(c(O)c1=O)C(=O)N1CCOC1C3CC2 (single isomer, unassigned) [Compound 15] |  | 373 | 0.609 | 
35 | C[C@H]1CN2C(=O)c3c(O)c(=O)c(C(=O)NCc4ccc(F)cc4F)c4n3C(CC4)C2N1 (some centres unmarked) [Compound 97] |  | 48.3 | 4.3 | 
36 | CC12NCCN1C(=O)c1c(O)c(=O)c(C(=O)NCc3ccc(F)cc3F)c3n1C2CC3 (centres unmarked) [Compound 138] |  | 27 | 2.41 | 
37 | O=C(NCc1ccc(F)cc1F)c1c2n3c(c(O)c1=O)C(=O)N1CCCOC1C3CC2 (single isomer, unassigned) [Compound 56] |  | 1800 | 0.701 | 
38 | CCNC1CC2C3OCCCN3C(=O)c3c(O)c(=O)c(C(=O)NCc4cccc(Cl)c4F)c1n32 (centres unmarked) [Compound 194] |  | 35.1 | 15.7 | 
39 | O=C(NCc1c(F)cc(F)cc1F)c1c2n3c(c(O)c1=O)C(=O)N1CCOC1C3CC2 (single isomer, unassigned) [Compound 18] | 0.483 |  |  | 8000
40 | CCN1C[C@H](C)N2C(=O)c3c(O)c(=O)c(C(=O)NCc4cccc(Cl)c4F)c4n3C(CC4)C12 (some centres unmarked) [Compound 111] | 1.19 | 260 |  | 
41 | COC1CC2C3OCCN3C(=O)c3c(O)c(=O)c(C(=O)NCc4ccc(F)cc4F)c1n32 (single isomer, unassigned) [Compound 73] |  | 49.4 | 0.679 | 
42 | C[C@H]1CN(C)C2C3CCc4c(C(=O)NCc5cccc(Cl)c5F)c(=O)c(O)c(n43)C(=O)N21 (some centres unmarked) [Compound 110] |  | 67.8 | 0.733 | 
43 | CCNC1C[C@H]2[C@H]3OC4CCC(C4)N3C(=O)c3c(O)c(=O)c(C(=O)NCc4ccc(F)cc4F)c1n32 (some centres unmarked) [Compound 176] | 16.8 |  |  | 129
44 | CCNC1CC2C3OCCCN3C(=O)c3c(O)c(=O)c(C(=O)NCc4ccc(F)cc4F)c1n32 (centres unmarked) [Compound 206] |  | 51.6 | 7.11 | 
45 | C[C@H]1CN2C(=O)c3c(O)c(=O)c(C(=O)NCc4cccc(Cl)c4F)c4n3C(CC4)C2N1 (some centres unmarked) [Compound 91] |  | 464 | 1 | 
46 | COC1CC2C3OCCN3C(=O)c3c(O)c(=O)c(C(=O)NCc4ccc(F)cc4F)c1n32 (single isomer, unassigned) [Compound 74] |  | 181 | 2.19 | 
47 | CCNC1CC2C3OCCCN3C(=O)c3c(O)c(=O)c(C(=O)NCc4cccc(F)c4F)c1n32 (centres unmarked) [Compound 188] |  | 462 | 16.3 | 
48 | C[C@H]1CN(S(C)(=O)=O)C2C3CCc4c(C(=O)NCc5cccc(Cl)c5F)c(=O)c(O)c(n43)C(=O)N21 (some centres unmarked) [Compound 117] | 3.78 |  |  | 130
49 | C[C@@H]1CN2C(=O)c3c(O)c(=O)c(C(=O)NCc4cccc(Cl)c4F)c4n3C(CC4)C2O1 (single isomer, unassigned) [Compound 41] |  | 2380 | 0.854 | 
